US20080207760A1, “Pharmaceutical Compositions For and Methods of Inhibiting Hcv” (priority 2005, published 2008)
Entries after “also recorded” stand apart in the source; their conditions may differ.

How the values were obtained:
HCV replicon cells = assay: HCV replicon assay (RNA dot blot or NPTII ELISA); assay type: cell-based
Procedure: Cells expressing the HCV replicon are seeded onto the internal wells of 96-well plates at a density of 7,000 cells per well. One day later, different dilutions of the test compounds are added to corresponding wells and the plates are incubated in a CO2 incubator for 72 hours. After treatment, the cells are lysed with 70 μl RLN buffer per well (50 mM Tris-HCl [pH8.0], 140 mM NaCl, 1.5 mM MgCl2, 0.5% Nonidet P-40, 1,000 units/mL RNAsin and 1 mM […]). The total lysate is transferred to a new U bottom 96-well plate and nuclei and cell debris are pelleted with a brief spin (300×g for 3 minutes). 50 μl of supernatant is removed from the well and loaded directly onto manifold wells equipped with Nylon membranes. HCV RNA is hybridized at 58° C. overnight using a labeled HCV RNA probe containing a negative strand sequence complement to the NS5B region. Hybridization buffer is composed of 50% formamide, 5×SSPE, 1% SDS, 5× Denhart's solution, and sheared denatured salmon sperm DNA. Following hybridization, the membrane is washed with washing buffer (0.1×SSC, 0.1% SDS) at room temperature for two hours, then at 65° C. for 30 minutes. The radioactivity in each well is counted on a Microbeta counter and EC50 is calculated based on cpm. Alternatively, HCV replicon cells are trypsinized for 5-10 minutes in a CO2 incubator. Then, cells are placed in a 15 mL tube, and are spun at 1000 rpm for 4 minutes and trypsin solution is removed. Cell pellets are washed once with PBS and spun 4 minutes at 1000 rpm.
Trypsinization and wash steps, supra, are conducted efficiently to minimize cell death. PBS is removed and cells are resuspended in 4 mL fresh PBS and cells are seeded at a dilution of 5000 cells per well to 96 well plates. Test compounds are diluted in 96 well U bottom plates with DMEM (high glucose) (BRL, Catalog #21063) supplemented with 10% FBS, L-glutamine, and non-essential amino acid. 100 uL of test compound is loaded into each well. […]
100 uL of development solution (TMB one-step substrate system) is added and plates are developed in the dark for 10 to 30 minutes. […] OD450 is measured. […]

synthetic NS4A [1] = molecular target: T1, synthetic NS4A (Hepatitis C virus genotype 1b, UniProt Q9WMX2); assay: Competition assay with [3H] labeled azidoacylthiourea for NS4A binding; set-up: species or system HCV
T1 construct: The full length of NS4A (54 amino acids) is synthesized; made in house
Procedure: (§1) To determine whether acylthiourea compounds bind to NS4A, a photo-affinity labeling is carried out, in which an [^3H] labeled photo-reactive azidoacylthiourea, 1-(5-Azido-benzofuran-2-carbonyl)-3-(4-pentyloxy-3-trifluoromethyl-phenyl)-thiourea, is mixed with synthetic NS4A at various molar ratios. The mixture is incubated at 31° C. for one hour. Samples are then illuminated by a UV lamp (254 nm wavelength) at room temperature for 7 minutes. After denaturing with equal volume of Laemmli buffer containing 5% mercaptoethanol at 99° C. for 5 minutes, samples are separated on a 10-20% SDS-PAGE. After electrophoresis, the gel is fixed with 30% methanol—10% acetic acid overnight. Then the gel is treated with 3H enhancer solution (PerkinElmer) at room temperature for one hour, and subsequently with water for 30 minutes, and dried under vacuum.
To study the binding specificity of [^3H] labeled 1-(5-Azido-benzofuran-2-carbonyl)-3-(4-pentyloxy-3-trifluoromethyl-phenyl)-thiourea to synthetic NS4A, several structurally related compounds are used in the following competition assays. Non-labeled 1-(5-Azido-benzofuran-2-carbonyl)-3-(4-pentyloxy-3-trifluoromethyl-phenyl)-thiourea shares the same structure with [^3H] labeled 1-(5-Azido-benzofuran-2-carbonyl)-3-(4-pentyloxy-3-trifluoromethyl-phenyl)-thiourea. 1-(5-Azido-benzofuran-2-carbonyl)-3-(4-pentyloxy-3-trifluoromethyl-phenyl)-urea differs in structure from 1-(5-Azido-benzofuran-2-carbonyl)-3-(4-pentyloxy-3-trifluoromethyl-phenyl)-thiourea in that 1-(5-Azido-benzofuran-2-carbonyl)-3-(4-pentyloxy-3-trifluoromethyl-phenyl)-urea has a carbonyl group where 1-(5-Azido-benzofuran-2-carbonyl)-3-(4-pentyloxy-3-trifluoromethyl-phenyl)-thiourea has a thiocarbonyl group. […]

full-length NS3 = full-length NS3 (Hepatitis C virus genotype 1b, UniProt Q9WMX2); assay: Photo-affinity labeling; assay type: binding, HCV; conditions: [3H] labeled compound; same molar ratio as NS4A (3.3 μM)
Procedure: as §1
(§2) One band corresponds to NS4A monomer, which is also detectable with Coomassie blue staining (FIG. 3). […] Without being bound by any particular theory, it is believed that this band may be composed largely of polymer form or aggregates of NS4A. At the same time, full-length NS3 and NS3 protease domain is included in this binding assay.

NS3 protease domain = NS3 protease domain (Hepatitis C virus genotype 1b, UniProt Q9WMX2); assay: Photo-affinity labeling; assay type: binding, HCV; conditions: [3H] labeled compound; same molar ratio as NS4A (3.3 μM)
Procedure: as §1, §2

synthetic NS4A [2] = molecular target: T1, synthetic NS4A; assay: Photo-affinity labeling; assay type: binding, HCV; conditions: [3H] labeled compound, UV 254 nm, SDS-PAGE
Procedure: Experiments are undertaken to investigate the affinity and binding specificity of acylthiourea compounds to NS4A. The full length of NS4A (54 amino acids) is synthesized, and characterized with mass spectral analysis and HPLC profiling. An NS4A sample is then dissolved in 100% dimethylsulphoxide (DMSO) at a concentration of 2 μg/μl and subjected to a 10-20% SDS-PAGE with a reducing reagent. A 6 kDa protein band, consistent with the size of NS4A, is detected in the gel following a Coomassie blue staining. The NS4A identity of this band is further confirmed by a Western blot with monoclonal anti-NS4A antibody.
as §1, with “Then the gel is treated with 3H enhancer solution (PerkinElmer) at room temperature for one hour, and subsequently with water for 30 minutes, and dried under vacuum.” left out

T1 sequence (Q9WMX2 1658-1711): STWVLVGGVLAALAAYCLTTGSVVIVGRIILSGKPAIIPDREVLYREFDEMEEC
Sequence of full-length NS3 (Q9WMX2 1027-1657): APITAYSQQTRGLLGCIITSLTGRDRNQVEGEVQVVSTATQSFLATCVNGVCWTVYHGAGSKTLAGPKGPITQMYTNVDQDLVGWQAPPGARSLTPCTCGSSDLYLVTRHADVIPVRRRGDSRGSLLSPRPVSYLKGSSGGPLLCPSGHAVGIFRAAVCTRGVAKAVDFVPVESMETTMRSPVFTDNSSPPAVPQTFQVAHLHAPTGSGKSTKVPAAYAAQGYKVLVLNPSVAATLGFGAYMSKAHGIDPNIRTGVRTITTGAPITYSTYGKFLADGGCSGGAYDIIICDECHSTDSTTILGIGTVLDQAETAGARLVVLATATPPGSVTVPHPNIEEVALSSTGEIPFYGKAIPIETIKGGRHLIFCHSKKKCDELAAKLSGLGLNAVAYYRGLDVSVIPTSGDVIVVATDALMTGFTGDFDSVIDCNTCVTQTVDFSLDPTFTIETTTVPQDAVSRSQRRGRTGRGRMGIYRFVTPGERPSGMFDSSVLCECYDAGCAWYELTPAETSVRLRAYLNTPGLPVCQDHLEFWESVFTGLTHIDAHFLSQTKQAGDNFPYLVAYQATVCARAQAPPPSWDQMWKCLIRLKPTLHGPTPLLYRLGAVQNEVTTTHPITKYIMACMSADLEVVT
Sequence of NS3 protease domain (Q9WMX2 1027-1208): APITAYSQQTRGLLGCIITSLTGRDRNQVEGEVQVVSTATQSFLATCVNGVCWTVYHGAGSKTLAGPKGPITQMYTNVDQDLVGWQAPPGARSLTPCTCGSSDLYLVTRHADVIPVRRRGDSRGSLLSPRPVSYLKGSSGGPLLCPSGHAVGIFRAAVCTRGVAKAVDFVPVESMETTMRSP

| SMILES | anti-HCV activity in replicon cells (HCV replicon cells) | competition with [3H] labeled 1-(5-Azido-benzofuran-2-carbonyl)-3-(4-pentyloxy-3-trifluoromethyl-phenyl)-thiourea for NS4A binding (synthetic NS4A [1]) | binding to full-length NS3 (full-length NS3) | binding to NS3 protease domain (NS3 protease domain) | binding to synthetic NS4A (synthetic NS4A [2]) |
| --- | --- | --- | --- | --- | --- |
| CCCCCOc1ccc(NC(=S)NC(=O)c2cccnc2)cc1C(F)(F)F [1-(4-Pentyloxy-3-trifluoromethyl-phenyl)-3-(pyridine-3-carbonyl)-thiourea] | exhibit anti-HCV activities in replicon cells | effectively compete |  |  |  |
| CCCCCOc1ccc(NC(=S)NC(=O)c2cc3cc(N=[N+]=[N-])ccc3o2)cc1C(F)(F)F [1-(5-Azido-benzofuran-2-carbonyl)-3-(4-pentyloxy-3-trifluoromethyl-phenyl)-thiourea] |  |  | only weak binding signals | only weak binding signals | binds to synthetic NS4A; also recorded: two radioactive bands are shown in the gel |
| CCCCCOc1ccc(NC(=O)NC(=O)c2cc3cc(N=[N+]=[N-])ccc3o2)cc1C(F)(F)F [1-(5-Azido-benzofuran-2-carbonyl)-3-(4-pentyloxy-3-trifluoromethyl-phenyl)-urea] | does not exhibit any anti-HCV activity in replicon cells | does not compete; also recorded: appears to abolish this competition capacity |  |  |  |
| CCCCCOc1ccc(NC(=S)NC(=O)c2cc3ccccc3o2)cc1C(F)(F)F [1-(Benzofuran-2-carbonyl)-3-(4-pentyloxy-3-trifluoromethyl-phenyl)-thiourea] | exhibit anti-HCV activities in replicon cells | effectively compete |  |  |  |
